Measurements reported in the NIST ThermoML archive (doi:10.1016/j.jct.2007.05.005).

Test: xn = mol fraction of the nth substance listed
Conditions: 101.3 kPa, Liquid; for speed of sound: Sing-around technique in a fixed-path interferometer

CCOC(C)(C)C [2-ethoxy-2-methylpropane] + CC(C)(C)O
Conditions | mass density, 303.15 K [kg/m3] | mass density, 313.15 K [kg/m3] | mass density, 323.15 K [kg/m3] | speed of sound, 303.15 K [m/s] | speed of sound, 313.15 K [m/s] | speed of sound, 323.15 K [m/s]
x1 = 0.06 | 770.981 | 760.486 | 749.635 | 1085.9 | 1043.4 | 1001.6
x1 = 0.093 | 768.859 | 758.385 | 747.565 | 1079.5 | 1037.4 | 996.19
x1 = 0.2 | 762.345 | 751.936 | 741.141 | 1062.9 | 1021.9 | 980.83
x1 = 0.298 | 757.005 | 746.63 | 735.846 | 1050.7 | 1010.1 | 969.12
x1 = 0.386 | 752.738 | 742.309 | 731.52 | 1041.5 | 1000.3 | 959.27
x1 = 0.488 | 748.226 | 737.777 | 726.96 | 1033.5 | 992.26 | 950.9
x1 = 0.632 | 742.556 | 732.028 | 721.169 | 1024.7 | 982.68 | 940.83
x1 = 0.685 | 740.622 | 730.077 | 719.198 | 1022.1 | 979.93 | 937.72
x1 = 0.796 | 736.85 | 726.255 | 715.369 | 1017.9 | 975.09 | 932.37
x1 = 0.896 | 733.592 | 722.99 | 712.15 | 1014.9 | 971.48 | 928.25
x1 = 0.949 | 731.862 | 721.29 | 710.507 | 1013.4 | 969.31 | 925.71
x1 = 1 | 730.186 | 719.687 | 708.996 | 1010.2 | 965.87 | 922.08

CCOC(C)(C)C [2-ethoxy-2-methylpropane] + CC(C)CC(C)(C)C
Conditions | mass density, 288.15 K [kg/m3] | mass density, 298.15 K [kg/m3] | mass density, 323.15 K [kg/m3] | speed of sound, 288.15 K [m/s] | speed of sound, 298.15 K [m/s] | speed of sound, 323.15 K [m/s]
x1 = 0.047 | 697.781 | 689.477 | 668.28 | 1121.2 | 1078.7 | 975.15
x1 = 0.1 | 699.904 | 691.5 | 670.054 | 1118.3 | 1075.5 | 971.5
x1 = 0.204 | 704.01 | 695.429 | 673.45 | 1111.9 | 1068.9 | 964.23
x1 = 0.305 | 708.284 | 699.51 | 677.1 | 1106.8 | 1063.8 | 958.38
x1 = 0.4 | 712.599 | 703.649 | 680.717 | 1101.7 | 1058.5 | 952.41
x1 = 0.508 | 717.689 | 708.525 | 685.059 | 1096.5 | 1053.1 | 946.33
x1 = 0.596 | 722.093 | 712.737 | 688.798 | 1092.5 | 1048.3 | 941.25
x1 = 0.699 | 727.55 | 717.974 | 693.436 | 1088.3 | 1043.8 | 935.64
x1 = 0.788 | 732.615 | 722.843 | 697.73 | 1084.9 | 1040.1 | 931
x1 = 0.902 | 739.579 | 729.56 | 703.808 | 1081.5 | 1036.6 | 927.2
x1 = 0.949 | 742.53 | 732.405 | 706.371 | 1080.5 | 1035.4 | 925.22
x1 = 1 | 745.656 | 735.357 | 709.007 | 1078.9 | 1033.2 | 922.48

CCOC(C)(C)C [2-ethoxy-2-methylpropane] + CCO
Conditions | mass density, 288.15 K [kg/m3] | mass density, 298.15 K [kg/m3] | mass density, 323.15 K [kg/m3] | speed of sound, 288.15 K [m/s] | speed of sound, 298.15 K [m/s] | speed of sound, 323.15 K [m/s]
x1 = 0.049 | 790.26 | 781.555 | 759.223 | 1171.4 | 1135.6 | 1048.6
x1 = 0.097 | 786.997 | 778.154 | 755.418 | 1165.8 | 1128.9 | 1038.1
x1 = 0.198 | 780.646 | 771.547 | 748.104 | 1150.9 | 1112.5 | 1018.3
x1 = 0.303 | 774.648 | 765.324 | 741.204 | 1137.4 | 1097.5 | 999.82
x1 = 0.395 | 770.061 | 760.556 | 735.962 | 1127.4 | 1086.4 | 986.27
x1 = 0.504 | 765.017 | 755.325 | 730.194 | 1116.6 | 1074.6 | 971.7
x1 = 0.606 | 760.667 | 750.815 | 725.266 | 1108.4 | 1065.5 | 959.88
x1 = 0.691 | 757.429 | 747.458 | 721.666 | 1101.4 | 1058 | 950.98
x1 = 0.802 | 753.45 | 743.339 | 717.148 | 1094 | 1049.8 | 941.56
x1 = 0.895 | 749.87 | 739.659 | 713.326 | 1087.8 | 1043 | 933.37
x1 = 0.935 | 748.296 | 738.056 | 711.669 | 1084.8 | 1039.8 | 929.43
x1 = 1 | 745.656 | 735.357 | 709.007 | 1078.9 | 1033.2 | 922.48
